Measurements published in patent US12590134B2, “GLP-1 agonist polypeptide compound and salt thereof, synthesis method therefor and use thereof” (Sinopep-Allsino Biopharmaceutical Co., Ltd., priority 2020, dated 2026).
Numbered stars: 1 amine (or outer) side, 2 acyl side, 3 side chain; on linkers, the order of the positions; unused ones are H or OH. Square brackets hold non-standard residues; d marks the D form. Side chains are listed from the residue outwards. Peptide text beside a SMILES is read from it. * marks the point of attachment. C18 diacid = O=C(O)CCCCCCCCCCCCCCCCC(=O)*; γGlu = O=C(O)[C@H](CCC(=O)[*:2])N[*:1]; Ac4c(3-oxa) = NC1(C(=O)O)COC1; Abu = CC[C@H](N)C(=O)O; AEEA = NCCOCCOCC(=O)O

Biological target: human GLP-1R (Homo sapiens, UniProt P43220)
Test: cAMP signal analysis of GLP-1R (GLP-1 receptor agonist activity)
Assay type: cell-based
Conditions: CHO cell line stably expressing human GLP-1R; downstream cAMP signal, LANCE cAMP kit; read-out: GLP-1R EC50
Description: A wild human GLP-1R (NM_002062.5) was subjected to transient transfection and screened for two weeks by 600 μg/ml of hygromycin-B to obtain a cell line which was recombined and integrated into an FlpInCHO (Invitrogen) cell stable expression system. The culture condition of the FlpInCHO cell was as follows: 10% of heat-inactivated fetal calf serum was added to a DMEM culture solution, and the culture was performed in a 5% carbon dioxide cell incubator.
In the test, an LANCE cAMP detection kit was used for measuring the cAMP signal intensity.

human GLP-1R, sequence (P43220 24-463): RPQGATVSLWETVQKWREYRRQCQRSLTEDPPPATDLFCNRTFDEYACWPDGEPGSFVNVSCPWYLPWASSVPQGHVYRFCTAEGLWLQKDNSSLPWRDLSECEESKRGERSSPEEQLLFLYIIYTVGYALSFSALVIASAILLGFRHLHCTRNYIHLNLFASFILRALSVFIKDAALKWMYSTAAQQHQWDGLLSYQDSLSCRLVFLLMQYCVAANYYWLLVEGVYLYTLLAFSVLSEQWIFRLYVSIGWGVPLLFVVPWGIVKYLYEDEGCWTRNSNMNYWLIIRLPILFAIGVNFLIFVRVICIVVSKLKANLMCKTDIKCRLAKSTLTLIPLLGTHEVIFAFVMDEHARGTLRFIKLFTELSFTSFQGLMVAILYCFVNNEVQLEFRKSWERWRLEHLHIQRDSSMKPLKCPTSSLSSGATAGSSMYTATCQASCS

EC50 | Compound
91.7 ± 9.69 nM | CC[C@H](C)[C@H](NC(=O)[C@H](Cc1ccccc1)NC(=O)[C@H](CCC(=O)O)NC(=O)[C@H](CCCCNC(=O)COCCOCCNC(=O)COCCOCCNC(=O)CC[C@H](NC(=O)CCCCCCCCCCCCCCCCC(=O)O)C(=O)O)NC(=O)[C@H](C)NC(=O)[C@H](C)NC(=O)[C@H](CCC(N)=O)NC(=O)[C@@](C)(CC)NC(=O)[C@H](CCC(=O)O)NC(=O)[C@H](CC(C)C)NC(=O)[C@H](Cc1ccc(O)cc1)NC(=O)[C@H](CO)NC(=O)[C@H](CO)NC(=O)[C@@H](NC(=O)[C@H](CC(=O)O)NC(=O)[C@H](CO)NC(=O)[C@@H](NC(=O)[C@H](Cc1ccccc1)NC(=O)[C@@H](NC(=O)CNC(=O)[C@H](CCC(=O)O)NC(=O)[C@@](C)(CC)NC(=O)[C@@H](N)Cc1c[nH]cn1)[C@@H](C)O)[C@@H](C)O)C(C)C)C(=O)N[C@@H](C)C(=O)N[C@@H](Cc1c[nH]c2ccccc12)C(=O)N[C@@H](CC(C)C)C(=O)N[C@H](C(=O)N[C@@H](CCCNC(=N)N)C(=O)NCC(=O)N[C@@H](CCCNC(=N)N)C(=O)NCC(=O)O)C(C)C [NO: 1]
0.915 ± 0.126 nM | CC[C@H](C)[C@H](NC(=O)[C@H](Cc1ccccc1)NC(=O)[C@H](CCC(=O)O)NC(=O)[C@H](CCCCNC(=O)COCCOCCNC(=O)COCCOCCNC(=O)CC[C@H](NC(=O)CCCCCCCCCCCCCCCCC(=O)O)C(=O)O)NC(=O)[C@H](C)NC(=O)[C@H](C)NC(=O)[C@H](CCC(N)=O)NC(=O)C1(NC(=O)[C@H](CCC(=O)O)NC(=O)[C@H](CC(C)C)NC(=O)[C@H](Cc2ccc(O)cc2)NC(=O)[C@H](CO)NC(=O)[C@H](CO)NC(=O)[C@@H](NC(=O)[C@H](CC(=O)O)NC(=O)[C@H](CO)NC(=O)[C@@H](NC(=O)[C@H](Cc2ccccc2)NC(=O)[C@@H](NC(=O)CNC(=O)[C@H](CCC(=O)O)NC(=O)C2(NC(=O)[C@@H](N)Cc3c[nH]cn3)COC2)[C@@H](C)O)[C@@H](C)O)C(C)C)COC1)C(=O)N[C@@H](C)C(=O)N[C@@H](Cc1c[nH]c2ccccc12)C(=O)N[C@@H](CC(C)C)C(=O)N[C@H](C(=O)N[C@@H](CCCNC(=N)N)C(=O)NCC(=O)N[C@@H](CCCNC(=N)N)C(=O)NCC(=O)O)C(C)C [NO: 5] (H-H[Ac4c(3-oxa)]EGTFTSDVSSYLE[Ac4c(3-oxa)]QAAK([AEEA-AEEA-γGlu-C18 diacid])EFIAWLVRGRG-OH)
8.8 ± 1.41 nM | CC[C@H](NC(=O)[C@H](CCC(=O)O)NC(=O)[C@H](CC(C)C)NC(=O)[C@H](Cc1ccc(O)cc1)NC(=O)[C@H](CO)NC(=O)[C@H](CO)NC(=O)[C@@H](NC(=O)[C@H](CC(=O)O)NC(=O)[C@H](CO)NC(=O)[C@@H](NC(=O)[C@H](Cc1ccccc1)NC(=O)[C@@H](NC(=O)CNC(=O)[C@H](CCC(=O)O)NC(=O)[C@H](CC)NC(=O)[C@@H](N)Cc1c[nH]cn1)[C@@H](C)O)[C@@H](C)O)C(C)C)C(=O)N[C@@H](CCC(N)=O)C(=O)N[C@@H](C)C(=O)N[C@@H](C)C(=O)N[C@@H](CCCCNC(=O)COCCOCCNC(=O)COCCOCCNC(=O)CC[C@H](NC(=O)CCCCCCCCCCCCCCCCC(=O)O)C(=O)O)C(=O)N[C@@H](CCC(=O)O)C(=O)N[C@@H](Cc1ccccc1)C(=O)N[C@H](C(=O)N[C@@H](C)C(=O)N[C@@H](Cc1c[nH]c2ccccc12)C(=O)N[C@@H](CC(C)C)C(=O)N[C@H](C(=O)N[C@@H](CCCNC(=N)N)C(=O)NCC(=O)N[C@@H](CCCNC(=N)N)C(=O)NCC(=O)O)C(C)C)[C@@H](C)CC [NO: 7] (H-H[Abu]EGTFTSDVSSYLE[Abu]QAAK([AEEA-AEEA-γGlu-C18 diacid])EFIAWLVRGRG-OH)
